Reference: patent publication US20200278355A1, “CONJUGATED PROTEINS AND USES THEREOF” (THE SCRIPPS RESEARCH INSTITUTE, priority 2017, published 2020)

Tests used:
[1] = target: T1, TXNRD1 (Homo sapiens, UniProt Q16881); assay: isoTOP-ABPP of compound-treated H460 cells: TXNRD1; type: cell-based; details: TXNRD1 U648; 40 μM
T1 construct: endogenous in cells; host or cells: H460
Experimental: For analysis of NR0B1 ligands or control compound reactivity, H460 cells or H460 cells expressing luciferase in a 10 cm plate were incubated with indicated compounds in serum/dye-free RPMI for 3 hours at 37° C. Cells were washed once ice-cold PBS and lysed in 1% Triton X-100 dissolved in PBS with protease inhibitors (Sigma) by sonication. Samples were clarified by centrifugation for 10 min at 16,000×g. Lysate was adjusted to 1.5 mg ml^−1 in 500 μL.
Samples were labeled for 1 h at ambient temperature with 100 μM iodoacetamide alkyne (1, IA-alkyne, 5 μL of 10 mM stock in DMSO). Samples were conjugated by copper-catalyzed azide-alkyne cycloaddition (CuAAC) to isotopically labeled, TEV-cleavable tags (TEV-tags). Heavy CuAAC reaction mixtures was added to the DMSO-treated or shGFP control samples and light CuAAC reaction mixture was added to compound-treated or shNRF2 samples. The CuAAC reaction mixture consisted of TEV tags (light or heavy, 10 μL of 5 mM stocks in DMSO, final concentration=100 μM), 1 mM tris(2-carboxyethyl)phosphine hydrochloride (TCEP; fresh 50× stock in water, final concentration=1 mM), ligand (17× stock in DMSO:t-butanol 1:4, final concentration=100 μM) and 1 mM CuSO4 (50× stock in water, final concentration=1 mM). The samples were allowed to react for 1 h at which point the samples were centrifuged (16,000×g, 5 min, 4° C.). […]

[2] = target: T2, SELO (Homo sapiens, UniProt Q9BVL4); assay: ABPP-SILAC BPK-29yne competition in H460 cells: SELO; type: cell-based; details: 20 μM
T2 construct: Isotopically labeled H460 cell lines were generated as described above; endogenous in cells; host or cells: H460 (SILAC-labelled)
Experimental: Isotopically labeled H460 cell lines were generated as described above. Light and heavy cells were treated with compounds (20 μM) or DMSO, respectively, for 3 h, followed by labeling with the BPK-29yne (5 μM) for 30 min. Cells were washed once ice-cold PBS and lysed in 1% Triton 100-X dissolved in PBS with protease inhibitors (Sigma) by sonication. Lysate was adjusted to 1.5 mg ml^−1 in 500 μL. Samples were conjugated by CuAAC to Biotin-PEG4-azide (5 μL of 10 mM stocks in DMSO, final concentration=100 μM). CuAAC “click” mix contained TCEP, TBTA ligand and CuSO4 as detailed for isoTOP-ABPP sample preparation. Samples were further processed as detailed in: isoTOP-ABPP streptavidin enrichment and isoTOP-ABPP trypsin TEV digestion with the following exception: after overnight incubation at 37° C. with trypsin, tryptic digests were separated from the beads with Micro Bio-Spin columns (Bio-Rad) by centrifugation (1,000×g, 1 min). Beads were rinsed once with water (200 μL) and combined with tryptic digests. […]
The MS2 spectra data were extracted and searched using RAW Convertor and ProLuCID algorithm as described in isoTOP-ABPP peptide and protein quantification. […] Ratios of heavy/light (DMSO/test compound) peaks were calculated using in-house CIMAGE software. […] The mean R values and standard deviation for multiple biological experiments were calculated from the average ratios from each replicate. […]

T2 sequence (Q9BVL4 116-669): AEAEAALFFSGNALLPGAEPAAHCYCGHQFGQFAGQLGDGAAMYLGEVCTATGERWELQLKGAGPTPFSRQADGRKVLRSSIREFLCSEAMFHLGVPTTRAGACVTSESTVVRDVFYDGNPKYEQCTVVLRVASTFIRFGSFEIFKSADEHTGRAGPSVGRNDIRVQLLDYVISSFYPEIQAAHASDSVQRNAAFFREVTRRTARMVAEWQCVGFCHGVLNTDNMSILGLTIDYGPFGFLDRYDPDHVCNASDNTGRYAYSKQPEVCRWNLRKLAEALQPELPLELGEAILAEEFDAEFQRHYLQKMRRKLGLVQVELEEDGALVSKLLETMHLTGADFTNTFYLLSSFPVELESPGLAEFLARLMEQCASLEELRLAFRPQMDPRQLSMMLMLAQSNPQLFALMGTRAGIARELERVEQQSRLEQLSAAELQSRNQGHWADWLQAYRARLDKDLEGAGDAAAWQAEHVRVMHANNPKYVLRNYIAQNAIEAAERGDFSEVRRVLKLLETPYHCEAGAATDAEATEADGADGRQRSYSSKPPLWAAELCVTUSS
T1 sequence (Q16881 whole entry): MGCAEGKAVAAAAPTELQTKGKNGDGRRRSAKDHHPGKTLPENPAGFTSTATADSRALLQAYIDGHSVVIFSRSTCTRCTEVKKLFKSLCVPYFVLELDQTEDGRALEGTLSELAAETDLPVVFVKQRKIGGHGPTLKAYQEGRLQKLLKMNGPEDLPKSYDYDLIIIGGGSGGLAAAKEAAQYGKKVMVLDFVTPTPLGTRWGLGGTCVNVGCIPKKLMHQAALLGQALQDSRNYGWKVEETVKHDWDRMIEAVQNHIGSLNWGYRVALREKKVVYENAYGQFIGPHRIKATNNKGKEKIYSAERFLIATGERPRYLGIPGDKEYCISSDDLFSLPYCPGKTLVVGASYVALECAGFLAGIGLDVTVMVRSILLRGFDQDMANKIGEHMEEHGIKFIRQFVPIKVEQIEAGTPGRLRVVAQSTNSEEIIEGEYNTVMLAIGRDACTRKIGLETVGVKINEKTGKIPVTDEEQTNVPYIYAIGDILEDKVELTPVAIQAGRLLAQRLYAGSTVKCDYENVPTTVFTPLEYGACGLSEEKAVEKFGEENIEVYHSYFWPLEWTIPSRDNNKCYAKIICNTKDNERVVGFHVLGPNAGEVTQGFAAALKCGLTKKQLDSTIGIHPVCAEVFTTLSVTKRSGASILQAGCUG

Structure (SMILES): O=C(c1ccc(N2CCOCC2)cc1)N1CCCC(N(Cc2ccccc2)C(=O)CCl)CC1 (centres unmarked) [BPK-29, N-benzyl-2-chloro-N-(1-(4-morpholinobenzoyl)azepan-4-yl)acetamide]
- BPK-29-competed isoTOP-ABPP analysis [1]: Yes (Competed defined as showing R value ≥ 3.0 at 40 μM of test compound)
- BPK-29-competed BPK-29yne analysis [2]: Yes (Competed defined as showing R value ≥ 2.5 at 20 μM of test compound)
